Reference: ChEMBL document CHEMBL3507680, “University of Dundee, Gates Library screen for HepG2 cell viability”

Experiment: Human HepG2 cell viability assay in 384 well format
Type: toxicity, cell-based
Design: dose 125 nL, time 70.5 hour; cytotoxicity at 70.5 h: concentration not given beside the values
Conditions: HepG2 cells, read-out: Inhibition

Compared with COc1ccc(F)cc1C(=O)N1CCn2c(nnc2C(F)(F)F)C1, COc1ccccc1OCc1cc(C(=O)N2CCS(=O)(=O)CC2)n[nH]1 is lower in cytotoxicity at 70.5 h: -5.57% for the first, -6.21% for the second.

Compared with Cc1nc(CNC(=O)NCC(O)c2ccc(F)cc2)cs1 (stereo not drawn), Cc1nc(CCNC(=O)NC(C)Cn2cccn2)cs1 (stereo not drawn) is lower in cytotoxicity at 70.5 h: -3.15% for the first, -12.8% for the second.

Going from CC1(C)OCC(CNC(=O)c2cnn(-c3cccc(Cl)c3Cl)c2N)O1 (stereo not drawn) to Cc1ncc(C(=O)NCCOc2ccccc2F)c(C)n1, the cytotoxicity at 70.5 h falls from 17% to 7.2%.

First: CN(C)C(=O)Cn1cc(C(=O)NCCc2ccc(C(F)(F)F)cc2)nn1
Second: CN(CC(=O)NC(C)(C)C)C(=O)c1cccn1CCc1ccccc1
The cytotoxicity at 70.5 h of the first is higher: 30.1% for the first, 5.51% for the second.

Compared with Cc1c(-c2nnc(SCC(=O)O)n2C(C)c2ccccc2)cnn1C (stereo not drawn), Cc1nn(C)c(C)c1-c1ccc(=O)n(C(C)C(=O)NCc2ccco2)n1 (stereo not drawn) is higher in cytotoxicity at 70.5 h: -12.3% for the first, -7.42% for the second.

Going from Cc1ccc(CC2CCCN2CC(=O)NCc2cccnc2)cc1 (stereo not drawn) to O=C(c1ccncc1)N1C[C@@H](OCc2cccnc2)[C@H]2OCCC[C@H]21, the cytotoxicity at 70.5 h rises from -15.4% to -10.2%.

Compared with CCC(=O)Nc1cccc(OCC(=O)N(C)Cc2nccn2CC)c1, COC(=O)NCCCn1ccnc1-c1ccccc1 is lower in cytotoxicity at 70.5 h: -2.37% for the first, -6.73% for the second.

Compared with CC(CN1CCCC1)C(=O)NCC1CCN(c2cnn(C)c(=O)c2)CC1 (stereo not drawn), CNCc1cn(CC2CCN(CC(C)(C)CN3CCCC3)CC2)nn1 is lower in cytotoxicity at 70.5 h: -5.06% for the first, -13.6% for the second.

First: O=S(=O)(c1cccnc1)N1CCN(CC(O)c2cccs2)CC1 (stereo not drawn)
Second: O=C(NCC(Cc1cccc(F)c1)N1CCCC1=O)c1cnccn1 (stereo not drawn)
The cytotoxicity at 70.5 h of the first is lower: -1.48% for the first, 0.835% for the second.

Compared with CS(=O)(=O)Cc1ccc(C(=O)N2CCCC(n3cncn3)C2)o1 (stereo not drawn), COc1ccccc1OCCNC(=O)N1CCC(n2cncn2)CC1 is lower in cytotoxicity at 70.5 h: 1.66% for the first, -4.48% for the second.

Going from Cc1ncc(CN(C)C2CCCN(c3cccnn3)C2)s1 (stereo not drawn) to Cc1csc(C2CCCCN2C(=O)CN(C)C2CC2)n1 (stereo not drawn), the cytotoxicity at 70.5 h falls from -2.85% to -8.97%.

Compared with O=C(NC1CCCC1)c1ccc(COCC(F)(F)F)o1, O=C(NCC1CC1)[C@@H]1CC[C@@H]2[C@@H](CCN2Cc2ccco2)O1 is higher in cytotoxicity at 70.5 h: -0.375% for the first, 1.26% for the second.

Going from Cc1cc(C(=O)NC2CC(=O)N(C(C)C)C2=O)c(C)n1C(C)C (stereo not drawn) to COc1cccc(CN2CCc3nc(C(=O)NCC(C)C)sc3CC2)c1, the cytotoxicity at 70.5 h rises from -7.47% to 10.6%.

Going from CCc1nc(CNC(C)(CO)C2CCCCC2)no1 (stereo not drawn) to CCCN1CCC(NC(=O)NCCc2nc(CC)c(C)s2)CC1, the cytotoxicity at 70.5 h falls from 15.6% to -1.97%.

Going from Cc1cc2cccc(C(=O)N3CC[C@@H](N)[C@H](O)C3)c2o1 to O=C(c1cccc(NCc2cccc(F)c2)c1)N1CCC(O)CC1, the cytotoxicity at 70.5 h rises from -9.95% to 10.8%.

Going from COc1ccc(F)cc1C[S+]([O-])CC(=O)NCc1ccccc1C (stereo not drawn) to Cc1c(OCC(=O)NCc2ccccc2)c(=O)ccn1C, the cytotoxicity at 70.5 h falls from 11% to -17.6%.

Going from CC(C)c1nnc(CN2CCCc3ccc(S(N)(=O)=O)cc32)o1 to Cc1noc(C)c1-c1n[nH]c2c1CN(S(=O)(=O)c1ccsc1)CC2, the cytotoxicity at 70.5 h rises from -0.377% to 15.3%.

Going from CCOC(=O)c1nc(CN2CCN(C(C)C(=O)NC3CC3)CC2)cs1 (stereo not drawn) to Cc1nc(C(Cc2ccsc2)NC(=O)CN2CCOCC2)sc1C (stereo not drawn), the cytotoxicity at 70.5 h rises from -9.09% to -4.95%.

Compared with CC(O)CN1CCc2onc(C(c3ccccc3)c3ccccc3)c2C1 (stereo not drawn), CC(=O)c1ccc(CN2CC(Oc3ccccc3C)C2)cc1 is higher in cytotoxicity at 70.5 h: -10% for the first, -1.63% for the second.

Compared with O=C(N1CCCC1)C12CC(CN1Cc1nccs1)C2, O=C(CCn1cccn1)N1CCSCC1 is higher in cytotoxicity at 70.5 h: -9.99% for the first, -4.39% for the second.

First: CCN1CCCC1CN(Cc1ccoc1)CC1CCN(CCOC)CC1 (stereo not drawn)
Second: CNS(=O)(=O)CCCN1CCCN(Cc2ccccc2)CC1C (stereo not drawn)
The cytotoxicity at 70.5 h of the first is lower: -3.24% for the first, 14.3% for the second.

Going from N#CCC1CC(c2ccc(F)cc2)=NO1 (stereo not drawn) to CCN(Cc1noc(C(C)C)n1)Cc1ccc(C#N)cc1F, the cytotoxicity at 70.5 h rises from -10% to 27.6%.

Compared with CCCc1ccc(CN2CCC3(CC2)CNC(=O)C3)o1, OC1(Cn2ccc3ncccc32)CCN(Cc2cc(F)cc(F)c2)CC1 is lower in cytotoxicity at 70.5 h: 21.8% for the first, 5.69% for the second.

Going from Fc1ccccc1-c1nnn(CCCc2nn[nH]n2)n1 to CN(Cc1ccnc2ccccc12)C1CCS(=O)(=O)C1 (stereo not drawn), the cytotoxicity at 70.5 h falls from -5.54% to -6.17%.

Going from CSCCC(C)NC(=O)CCN1C(=O)CCc2cc(F)ccc21 (stereo not drawn) to CCN(CC(=O)Nc1cc(C(C)(C)C)no1)Cc1ccc(Cl)s1, the cytotoxicity at 70.5 h rises from -4.19% to -3.4%.

Compared with CCC(C)Sc1nncn1-c1ccc(OC)nc1 (stereo not drawn), CCn1c(N)nc2cc(C(=O)NCCc3sccc3C)cnc21 is lower in cytotoxicity at 70.5 h: 5.95% for the first, -4.44% for the second.

Compared with O=C1CNCC(C(=O)N2CC(Oc3ccccc3Cl)C2)N1 (stereo not drawn), COCC(=O)N1CCCC1c1ccc(C(=O)NCc2ccccc2Cl)s1 (stereo not drawn) is lower in cytotoxicity at 70.5 h: -7.25% for the first, -11.5% for the second.

Compared with CSCc1noc(CN(C)C(C)c2nc(C)sc2C)n1 (stereo not drawn), CCOC(=O)C(C)Nc1cccc(COCc2ccco2)c1 (stereo not drawn) is lower in cytotoxicity at 70.5 h: 6.01% for the first, -1.34% for the second.

Going from CC(C)c1ncc(C(=O)N2CCOCC2CC(=O)c2ccco2)s1 (stereo not drawn) to Cc1cc(C)cc(CN2CCN(Cc3cc(C#N)n(C)c3)CC2=O)c1, the cytotoxicity at 70.5 h falls from -2.34% to -6.92%.
